How the values were obtained:
[1] = Long-term stability test (ICH conditions); assay type: physicochemical; details: for Related substances: N^10-CHO-folic acid (D) (% m/m) / Related substances: PABG (A) (% area) / Sum of all relates substances (% area) / Water content (%) / Assay of Levofolinic acid (% m/m) / Appearance / Aspect of a 1.0% m/V solution in Tris solution corrected at pH = 8.1: Absorbance at 420 nm / Related substances: 5-CHO-4H-Pteroic acid (E) (% area) / Related substances: Any individual unknown impurities / Related substances: Dihydrofolic acid (G) (% area) / Related substances: Folic acid (C) (% area) / Related substances: N^5-N^10-diformyl-THF (B) (% area) / Related substances: N^10-CHO-dihydrofolic acid (F) (% area) / Optical rotation of a 1.0% m/V solution in Tris solution corrected at pH = 8.1 / Content of Dextrofolinic acid (H): long-term: 25±2° C., 60±5% relative humidity; for Assay of Levofolinic acid (% m/m): anhydrous and solvent free basis; for Appearance: specification white to pale yellow powder
Procedure: Two specimens of the product obtained in example 1 are subjected to accelerated stability tests and long-term stability tests, respectively; the tests are carried out according to ICH conditions. Long-term: 25±2° C., 60±5% relative humidity Analytical methods used for the stability studies tests are described in the calcium levofolinate monograph of the European Pharmacopoeia.

[2] = Solubility in water or hydroalcoholic mixtures; assay type: physicochemical; details: pH range between 3.0 and 4.5
[3] = easily converted into by-products if pH lower than 3.0 or temperature reaches 60° C. during pH lowering; per U.S. Pat. No. 6,441,168 B1; cited from earlier work

SMILES: Nc1nc(=O)c2c([nH]1)NC[C@H](CNc1ccc(C(=O)N[C@@H](CCC(=O)O)C(=O)O)cc1)N2C=O [Example 1, (6S)—N(5)-formyl-5,6,7,8-tetrahydrofolic acid]
- Related substances: N^10-CHO-folic acid (D) (% m/m) ([1]; 6 months): <0.10 % m/m
- Related substances: PABG (A) (% area) ([1]; 6 months): 0.10 % area
- Sum of all relates substances (% area) ([1]; 6 months): 0.70 % area
- Water content (%) ([1]; 6 months): 0.9%
- Assay of Levofolinic acid (% m/m) ([1]; 6 months): 98.8 % m/m
- Appearance ([1]; 6 months): Conform
- Aspect of a 1.0% m/V solution in Tris solution corrected at pH = 8.1: Absorbance at 420 nm ([1]; 9 months): 0.04
- Related substances: 5-CHO-4H-Pteroic acid (E) (% area) ([1]; 9 months): 0.35 % area
- Related substances: Any individual unknown impurities ([1]; 9 months): <0.10 % area
- Related substances: Dihydrofolic acid (G) (% area) ([1]; 9 months): <0.10 % area
- Related substances: Folic acid (C) (% area) ([1]; 9 months): <0.10 % area
- Related substances: N^5-N^10-diformyl-THF (B) (% area) ([1]; 9 months): <0.10 % area
- Related substances: N^10-CHO-dihydrofolic acid (F) (% area) ([1]; 9 months): 0.15 % area
- Related substances: N^10-CHO-folic acid (D) (% m/m) ([1]; 9 months): <0.10 % m/m
- Related substances: PABG (A) (% area) ([1]; 9 months): <0.10 % area
- Sum of all relates substances (% area) ([1]; 9 months): 0.55 % area
- Water content (%) ([1]; 9 months): 1.0%
- Assay of Levofolinic acid (% m/m) ([1]; 9 months): 99.4 % m/m
- Appearance ([1]; 9 months): Conform
- Aspect of a 1.0% m/V solution in Tris solution corrected at pH = 8.1: Absorbance at 420 nm ([1]; 12 months): 0.06
- Related substances: 5-CHO-4H-Pteroic acid (E) (% area) ([1]; 12 months): 0.34 % area
- Related substances: Any individual unknown impurities ([1]; 12 months): <0.10 % area
- Related substances: Dihydrofolic acid (G) (% area) ([1]; 12 months): <0.10 % area
- Related substances: Folic acid (C) (% area) ([1]; 12 months): <0.10 % area
- Related substances: N^5-N^10-diformyl-THF (B) (% area) ([1]; 12 months): <0.10 % area
- Related substances: N^10-CHO-dihydrofolic acid (F) (% area) ([1]; 12 months): 0.18 % area
- Related substances: N^10-CHO-folic acid (D) (% m/m) ([1]; 12 months): <0.10 % m/m
- Related substances: PABG (A) (% area) ([1]; 12 months): 0.11 % area
- Sum of all relates substances (% area) ([1]; 12 months): 0.63 % area
- Water content (%) ([1]; 12 months): 1.1%
- Assay of Levofolinic acid (% m/m) ([1]; 12 months): 99.4 % m/m
- Appearance ([1]; 12 months): Conform
- Aspect of a 1.0% m/V solution in Tris solution corrected at pH = 8.1: Absorbance at 420 nm ([1]; 18 months): 0.05
- Optical rotation of a 1.0% m/V solution in Tris solution corrected at pH = 8.1 ([1]; 18 months): −13.1°
- Related substances: 5-CHO-4H-Pteroic acid (E) (% area) ([1]; 18 months): 0.36 % area
- Related substances: Any individual unknown impurities ([1]; 18 months): <0.10 % area
- Related substances: Dihydrofolic acid (G) (% area) ([1]; 18 months): <0.10 % area
- Related substances: Folic acid (C) (% area) ([1]; 18 months): <0.10 % area
- Related substances: N^5-N^10-diformyl-THF (B) (% area) ([1]; 18 months): <0.10 % area
- Related substances: N^10-CHO-dihydrofolic acid (F) (% area) ([1]; 18 months): 0.17 % area
- Related substances: N^10-CHO-folic acid (D) (% m/m) ([1]; 18 months): <0.10 % m/m
- Related substances: PABG (A) (% area) ([1]; 18 months): 0.11 % area
- Sum of all relates substances (% area) ([1]; 18 months): 0.63 % area
- Water content (%) ([1]; 18 months): 0.9%
- Assay of Levofolinic acid (% m/m) ([1]; 18 months): 100.2 % m/m
- Appearance ([1]; 18 months): Conform
- Aspect of a 1.0% m/V solution in Tris solution corrected at pH = 8.1: Absorbance at 420 nm ([1]; 24 months): 0.06
- Content of Dextrofolinic acid (H) ([1]; 24 months): <0.10%
- Related substances: 5-CHO-4H-Pteroic acid (E) (% area) ([1]; 24 months): 0.31 % area
- Related substances: Any individual unknown impurities ([1]; 24 months): <0.10 % area
- Related substances: Dihydrofolic acid (G) (% area) ([1]; 24 months): <0.10 % area
- Related substances: Folic acid (C) (% area) ([1]; 24 months): <0.10 % area
- Related substances: N^5-N^10-diformyl-THF (B) (% area) ([1]; 24 months): <0.10 % area
- Related substances: N^10-CHO-dihydrofolic acid (F) (% area) ([1]; 24 months): 0.16 % area
- Related substances: N^10-CHO-folic acid (D) (% m/m) ([1]; 24 months): <0.10 % m/m
- Related substances: PABG (A) (% area) ([1]; 24 months): 0.13 % area
- Sum of all relates substances (% area) ([1]; 24 months): 0.66 % area
- Water content (%) ([1]; 24 months): 0.7%
- Assay of Levofolinic acid (% m/m) ([1]; 24 months): 99.4 % m/m
- Appearance ([1]; 24 months): Conform
- Aspect of a 1.0% m/V solution in Tris solution corrected at pH = 8.1: Absorbance at 420 nm ([1]; 36 months): 0.08
- Content of Dextrofolinic acid (H) ([1]; 36 months): <0.10%
- Optical rotation of a 1.0% m/V solution in Tris solution corrected at pH = 8.1 ([1]; 36 months): −14.9°
- Related substances: 5-CHO-4H-Pteroic acid (E) (% area) ([1]; 36 months): 0.33 % area
- Related substances: Any individual unknown impurities ([1]; 36 months): <0.10 % area
- Related substances: Dihydrofolic acid (G) (% area) ([1]; 36 months): <0.10 % area
- Related substances: Folic acid (C) (% area) ([1]; 36 months): <0.10 % area
- Related substances: N^5-N^10-diformyl-THF (B) (% area) ([1]; 36 months): <0.10 % area
- Related substances: N^10-CHO-dihydrofolic acid (F) (% area) ([1]; 36 months): 0.25 % area
- Related substances: N^10-CHO-folic acid (D) (% m/m) ([1]; 36 months): <0.10 % m/m
- Related substances: PABG (A) (% area) ([1]; 36 months): 0.16 % area
- Sum of all relates substances (% area) ([1]; 36 months): 0.73 % area
- Water content (%) ([1]; 36 months): 1.0%
- Assay of Levofolinic acid (% m/m) ([1]; 36 months): 99.6 % m/m
- Appearance ([1]; 36 months): Conform
- Stability (conclusion from stability data of tables 2 and 3) ([1]; may resist unaltered during a shelf-life of up to three years): stable
- Stability compared with known forms ([1]; versus calcium levofolinate of the known art or levofolinic acid amorphous of U.S. Pat. No. 5,134,235): better properties
- Solubility [2]: scarcely soluble
- Stability [3]: unstable
